According to US7417025B2, “Use of poly-α2,8-sialic acid mimetic peptides to modulate NCAM functions” (Centre National de la Recherche Scientifique, priority 2002, dated 2008):
“Also recorded” adds a separate entry of the source.

How the values were obtained:
[1] = system: Mouse dorsal root ganglion explants (E13.5); experiment: Dorsal root ganglion explant culture: neurite outgrowth and fasciculation; assay type: cell-based
Protocol: E13.5 DRGs were dissected out from mice embryos in HBSS medium and seeded on glass coverslips coated with polylysine or with peptides linked to BSA. Explants were cultured in the presence or the absence of the peptides under soluble form (40 μM) in two ml of neurobasal medium (DMEM/Ham's F12, 3:1 (V/V), GIBCO, buffered with 20 mM Hepes), supplemented as described in Faivre-Sarrailh et al., J. Cell. Sci., 1999, 18, 3015-3027 and Chazal et al., J.Neurosci., 2000, 20, 1446-1457.
Fixed DRGs (Dorsal Root ganglia) explants and sections were incubated at 4° C. respectively 2 hr with an anti-neurofilament (SMI-31, dilution 1:800, STERNBERGER MONOCLONALS) and overnight with an anti-PSA antibody (dilution 1:200, Rougon et al, J. Cell. Biol., 1986, 103, 2429-2437). Revelation was performed by 1 hr incubation with the corresponding fluorescent-labeled secondary antibody (Goat anti-mouse IgM or IgG conjugated with texas red, IMMUNOTECH)
(§1) After 48 h in culture, explants were examining directly (SVZ) or after overnight fixation with a 4% paraformaldehyde solution in PBS and immunostaining (DRGs). Observation was done using 2, 5×, 5×, 10× and 32× objectives (Axiovert 35M, ZEISS). Images were collected with a video camera (Cool View, PHOTONIC SCIENCE) and analysed using image-processing software (Visiolab1000, BIOCOM). Mean migration distance (calculated on five different experiments, including at least five explants per condition) or mean length of the longest neurite (calculated on two different experiments, including at least eight explants per condition), was the distance in micrometers between the explant edge and the border of the cell migration front. Four measurements were performed for each explant. The significance of the differences between the control and the different experimental conditions was calculated by Student's t test.
Mouse dorsal root ganglion explants (E13.5) were cultured in the presence of p65 and p66 cyclic mimetic peptides, either in soluble form or coated on the microplates as BSA conjugates. Cells cultured in the absence of peptides or in the presence of reverse peptides (coated or in soluble form) were used as controls.

[2] = system: spinal cord dorsal hemisection; experiment: Functional recovery from spinal cord injury (BBB test, rotarod test); assay type: in vivo, mouse
Protocol: Male Swiss-CD1 mice (8-10 week-old) were anesthetized with a mixture of ketamine and xylazine. The spinal cord had been exposed by making a midline incision of the skin, and by retracting the paravertebral muscles. A laminectomy was performed at the T7-T8 level and the spinal cord exposed. Using iridectomy scissors, a bilateral dorsal hemisection, transecting left and right dorsal finiculus, the dorsal horns, but sparing most parts of the ventral fimiculus, was performed, resulting in a complete transection of the dorsomedial main Cortico Spinal Tract (CST). For the series of mice receiving the peptides a Surgicoll pledget saturated with 10 μl of either p65 or reverse p65 (10 μM) peptides was applied over the transection site and covered with petroleum jelly to prevent diffusion. All inside muscle layer were sutured using fine thread. Skin was sutured using surgical staples. […]
Functional evaluation of the animals was performed at day (D) D1, D4, D7, D14, D21, D28, D35, during the first week following the spinal cord lesion and then on a weekly basis until D35, by two different observers blinded to group identity. Locomotor recovery was evaluated using the BBB test (Basso, Beattie and Bresnahan test; Basso et al., Restor. Neurol. Neurosci, 2002, 5, 189-218). […]

[3] = system: subventricular zone explants (neuronal precursors); experiment: Subventricular zone (SVZ) explant culture: cell migration in vitro; assay type: cell-based, mouse; conditions: for Rate of migration of the neuronal precursors compared to the corresponding control peptide: FIG. 7, controls reverse p65 and p22
Protocol: Cultures of SVZ explants were performed as described in Chazal et al., precited. Briefly, 1-day-old mice were killed by rapid decapitation. Brains were dissected out and sectionned by Vibratome (Leica). The SVZ from the lateral wall of the anterior lateral ventricle horn was dissected out in HBSS medium (LIFE TECHNOLOGIES) and cut into 200-300 μm diameter explants. The explants were mixed with Matrigel (BECKTON DICKINSON) and cultured in four-well dishes. After polymerisation, the gel was overlaid with 400 μl of serum-free medium containing B-27 supplement (LIFE TECHNOLOGIES), in the presence or the absence of 40 μM of peptides (p65, p66, reverse p65, p21 or p22) and 70 U of Endo N per milliliter.
as §1

[4] = peptide in coated form (BSA conjugate)
[5] = peptide in soluble form (40 μM), versus controls

For CSSVTAWTTGCG [p65], the Fasciculation [1, 4] was “opposite effect on fasciculation”, the Neurite outgrowth [1, 4] was “no effect on neurite outgrowth; also recorded: no significant increase” and the Axonal growth [1, 5] was “significant increase in axonal growth”. The “Fasciculation of axon bundles” value [1, 5] was “clear defasciculation of axon bundles”, the “Increase of neurite outgrowth compared to the controls” value ([1]; peptide in soluble form, mean length of the longest neurite) was 34% and the “Rotarod test (fine motor coordination)” value ([2]; D35) was “beneficial effect on recovery”. The “BBB score (locomotor recovery)” value ([2]; versus p65-reverse controls, starting from D14 post-injury, 10 μl of 10 μM peptide at lesion) was “significantly higher”, the “Rate of migration of the neuronal precursors compared to the corresponding control peptide” value [3] was “significant increase” and the “Rate of migration of the neuronal precursors and chain-like arrangement” value ([3]; SVZ explants in Matrigel, FIG. 4) was “increases the rate of migration”. For the same sequence, the “Migration of precursors from NCAM −/− mice” value ([3]; SVZ explants of NCAM −/− mice, FIG. 6) was “did not reverse the impaired migration”, the “Concentration from which the optimal effect on cell migration is observed” value ([3]; dose-response curve) was at least 0.4 µM and the “PSA-dependence of the migration effect” value ([3]; with endo N treatment) was “abolished by endo N treatment”.
In the case of DSPLVPFIDFHP [p21], the “Rate of migration of the neuronal precursors compared to the corresponding control peptide” value [3] is reported as “significant decrease”.
